Reference: ChEMBL document CHEMBL1146394, “New antihepatotoxic cerebroside from Lycium chinense fruits” (1997)

system: Hepatocyte; assay: Antihepatotoxic activity against CCl4-induced cytotoxicity in rat hepatocytes assessed as blockade of glutamic pyruvic transaminase release at 25 uM by Reitman-Frankel method relative to control; type: functional

SMILES | Activity
CCCCCCCCC/C=C\CC/C=C/[C@@H](O)[C@H](CO[C@@H]1O[C@H](CO)[C@@H](O)[C@H](O)[C@H]1O)NC(=O)C(O)CCCCCCCCCCCCCC (stereo partly specified) | 86.4%
CCCCCCCCC/C=C\CC/C=C/[C@@H](O)[C@H](CO[C@@H]1O[C@H](CO)[C@@H](O)[C@H](O)[C@H]1O)NC(=O)CCCCCCCCCCCCCCC | 95.6%
COc1cc(C2Oc3cc([C@H]4Oc5cc(O)cc(O)c5C(=O)[C@@H]4O)ccc3OC2CO)ccc1O (stereo partly specified) [SILIBININ] | 76%

system: Hepatocyte; assay: Antihepatotoxic activity against CCl4-induced cytotoxicity in rat hepatocytes assessed as blockade of sorbitol dehydrogenase release at 25 uM by modified Gerlach method relative to control; type: functional

SMILES | Activity
CCCCCCCCC/C=C\CC/C=C/[C@@H](O)[C@H](CO[C@@H]1O[C@H](CO)[C@@H](O)[C@H](O)[C@H]1O)NC(=O)C(O)CCCCCCCCCCCCCC (stereo partly specified) | 69.5%
CCCCCCCCC/C=C\CC/C=C/[C@@H](O)[C@H](CO[C@@H]1O[C@H](CO)[C@@H](O)[C@H](O)[C@H]1O)NC(=O)CCCCCCCCCCCCCCC | 80.2%
COc1cc(C2Oc3cc([C@H]4Oc5cc(O)cc(O)c5C(=O)[C@@H]4O)ccc3OC2CO)ccc1O (stereo partly specified) [SILIBININ] | 58.9%
